Values after ≈ are worked out from the molar mass of the structure shown.
Experiments:
[1] = Toxicity in human erythrocytes assessed as hemolytic activity by spectrophotometric analysis; type: cell-based; conditions: erythrocyte
[2] = test system: Bacillus amyloliquefaciens; assay: Antimicrobial activity against Bacillus amyloliquefaciens 23842 assessed as […] growth inhibition after 24 hrs by two-fold serial broth dilution method; type: functional; conditions: Bacillus amyloliquefaciens, 23842, 24 h
[3] = target: T1, 3-oxoacyl-[acyl-carrier-protein] synthase 3 (Escherichia coli, UniProt C3TDZ2); assay: Inhibition of Escherichia coli FabH overexpressed in Escherichia coli DH10B cells assessed as incorporation of [3H] in the product after 25 mins by liquid scintillation counting analysis
T1 sequence (C3TDZ2 whole entry): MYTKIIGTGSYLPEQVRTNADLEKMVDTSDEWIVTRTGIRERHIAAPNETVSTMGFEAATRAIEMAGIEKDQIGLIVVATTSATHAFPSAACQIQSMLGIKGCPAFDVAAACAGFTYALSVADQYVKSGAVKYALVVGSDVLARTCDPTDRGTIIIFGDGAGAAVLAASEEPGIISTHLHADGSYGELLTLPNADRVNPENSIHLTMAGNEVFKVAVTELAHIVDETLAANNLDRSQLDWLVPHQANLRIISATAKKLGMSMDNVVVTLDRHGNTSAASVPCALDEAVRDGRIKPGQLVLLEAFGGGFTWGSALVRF

[4] = test system: Staphylococcus aureus; assay: Antimicrobial activity against Staphylococcus aureus ATCC 25923 assessed as […] growth inhibition after 24 hrs by two-fold serial broth dilution method; type: functional; conditions: ATCC 25923, 24 h
[5] = test system: Pseudomonas aeruginosa; assay: Antimicrobial activity against Pseudomonas aeruginosa ATCC 27853 assessed as […] growth inhibition after 24 hrs by two-fold serial broth dilution method; type: functional; conditions: ATCC 27853, 24 h
[6] = test system: NIH3T3; assay: Cytotoxicity against mouse NIH/3T3 cells after 24 hrs by MTT assay; type: cell-based; conditions: NIH3T3, 24 h
[7] = test system: Bacillus subtilis; assay: Antimicrobial activity against Bacillus subtilis ATCC 530 assessed as […] growth inhibition after 24 hrs by two-fold serial broth dilution method; type: functional; conditions: ATCC 530, 24 h
[8] = test system: Escherichia coli; assay: Antimicrobial activity against Escherichia coli ATCC 25922 assessed as […] growth inhibition after 24 hrs by two-fold serial broth dilution method; type: functional; conditions: ATCC 25922, 24 h

MIC [2] | IC50 [3] | MIC [4] | MIC [5] | MIC [7] | MIC [8] | Compound | LC30 [1] | IC50 [6]
25 µg/mL (≈ 73 µM) | 45.5 µM | 12.5 µg/mL (≈ 36.5 µM) | 50 µg/mL (≈ 146 µM) | 25 µg/mL (≈ 73 µM) | 25 µg/mL (≈ 73 µM) | COc1ccc(/C=N/n2c(S)nnc2-c2cnccn2)cc1OC | > 10 mg/mL | 163 µM
6.25 µg/mL (≈ 16.8 µM) | 12.8 µM | 25 µg/mL (≈ 67.1 µM) | 12.5 µg/mL (≈ 33.6 µM) | 3.13 µg/mL (≈ 8.4 µM) | 6.25 µg/mL (≈ 16.8 µM) | COc1cc(OC)c(OC)cc1/C=N/n1c(S)nnc1-c1cnccn1 | > 10 mg/mL | 142 µM
25 µg/mL (≈ 67.1 µM) | 15.1 µM | 12.5 µg/mL (≈ 33.6 µM) | 12.5 µg/mL (≈ 33.6 µM) | 6.25 µg/mL (≈ 16.8 µM) | 6.25 µg/mL (≈ 16.8 µM) | COc1cc(/C=N/n2c(S)nnc2-c2cnccn2)cc(OC)c1OC | > 10 mg/mL | 169 µM
25 µg/mL (≈ 80 µM) | 22.9 µM | 25 µg/mL (≈ 80 µM) | 25 µg/mL (≈ 80 µM) | 25 µg/mL (≈ 80 µM) | 12.5 µg/mL (≈ 40 µM) | COc1ccccc1/C=N/n1c(S)nnc1-c1cnccn1 | > 10 mg/mL | 173 µM
50 µg/mL (≈ 160 µM) |  | > 50 µg/mL | 50 µg/mL (≈ 160 µM) | 50 µg/mL (≈ 160 µM) | 25 µg/mL (≈ 80 µM) | COc1cccc(/C=N/n2c(S)nnc2-c2cnccn2)c1 |  | 
50 µg/mL (≈ 153 µM) |  | > 50 µg/mL | 25 µg/mL (≈ 76.4 µM) | 25 µg/mL (≈ 76.4 µM) | 25 µg/mL (≈ 76.4 µM) | O=[N+]([O-])c1ccc(/C=N/n2c(S)nnc2-c2cnccn2)cc1 |  | 
25 µg/mL (≈ 83.8 µM) | 29.3 µM | 50 µg/mL (≈ 168 µM) | 25 µg/mL (≈ 83.8 µM) | 25 µg/mL (≈ 83.8 µM) | 12.5 µg/mL (≈ 41.9 µM) | Oc1ccc(/C=N/n2c(S)nnc2-c2cnccn2)cc1 | > 10 mg/mL | 175 µM
0.78 µg/mL (≈ 2.61 µM) | 5.2 µM | 1.56 µg/mL (≈ 5.23 µM) | 1.56 µg/mL (≈ 5.23 µM) | 0.78 µg/mL (≈ 2.61 µM) | 0.39 µg/mL (≈ 1.31 µM) | Oc1ccccc1/C=N/n1c(S)nnc1-c1cnccn1 | > 10 mg/mL | 131 µM
50 µg/mL (≈ 168 µM) | 48.3 µM | > 50 µg/mL | 25 µg/mL (≈ 83.8 µM) | 50 µg/mL (≈ 168 µM) | 25 µg/mL (≈ 83.8 µM) | Oc1cccc(/C=N/n2c(S)nnc2-c2cnccn2)c1 | > 10 mg/mL | 151 µM
25 µg/mL (≈ 79.5 µM) | 24.6 µM | 25 µg/mL (≈ 79.5 µM) | 12.5 µg/mL (≈ 39.8 µM) | 25 µg/mL (≈ 79.5 µM) | 12.5 µg/mL (≈ 39.8 µM) | Oc1ccc(/C=N/n2c(S)nnc2-c2cnccn2)cc1O | > 10 mg/mL | 148 µM
50 µg/mL (≈ 162 µM) |  | 50 µg/mL (≈ 162 µM) | 25 µg/mL (≈ 81.1 µM) | 25 µg/mL (≈ 81.1 µM) | 12.5 µg/mL (≈ 40.5 µM) | Sc1nnc(-c2cnccn2)n1/N=C/C=C/c1ccccc1 |  | 
25 µg/mL (≈ 69.2 µM) |  | 50 µg/mL (≈ 138 µM) | 50 µg/mL (≈ 138 µM) | 25 µg/mL (≈ 69.2 µM) | 50 µg/mL (≈ 138 µM) | Sc1nnc(-c2cnccn2)n1/N=C/c1ccc(Br)cc1 |  | 
50 µg/mL (≈ 177 µM) |  | 50 µg/mL (≈ 177 µM) | 25 µg/mL (≈ 88.5 µM) | 25 µg/mL (≈ 88.5 µM) | 25 µg/mL (≈ 88.5 µM) | Sc1nnc(-c2cnccn2)n1/N=C/c1ccccc1 |  | 
50 µg/mL (≈ 166 µM) |  | 50 µg/mL (≈ 166 µM) | > 50 µg/mL | 50 µg/mL (≈ 166 µM) | 25 µg/mL (≈ 83.2 µM) | Fc1ccc(/C=N/n2c(S)nnc2-c2cnccn2)cc1 |  | 
50 µg/mL (≈ 158 µM) | > 100 µM | 50 µg/mL (≈ 158 µM) | > 50 µg/mL | > 50 µg/mL | 50 µg/mL (≈ 158 µM) | Sc1nnc(-c2cnccn2)n1/N=C/c1ccc(Cl)cc1 | > 10 mg/mL | 218 µM
25 µg/mL (≈ 84.4 µM) | 27.1 µM | 25 µg/mL (≈ 84.4 µM) | 50 µg/mL (≈ 169 µM) | 25 µg/mL (≈ 84.4 µM) | 12.5 µg/mL (≈ 42.2 µM) | Cc1ccc(/C=N/n2c(S)nnc2-c2cnccn2)cc1 | > 10 mg/mL | 156 µM
25 µg/mL (≈ 80 µM) |  | 50 µg/mL (≈ 160 µM) | 25 µg/mL (≈ 80 µM) | 50 µg/mL (≈ 160 µM) | 12.5 µg/mL (≈ 40 µM) | COc1ccc(/C=N/n2c(S)nnc2-c2cnccn2)cc1 |  | 
50 µg/mL (≈ 166 µM) |  | 50 µg/mL (≈ 166 µM) | 50 µg/mL (≈ 166 µM) | 50 µg/mL (≈ 166 µM) | 25 µg/mL (≈ 83.2 µM) | Fc1ccccc1/C=N/n1c(S)nnc1-c1cnccn1 |  | 
50 µg/mL (≈ 166 µM) |  | 50 µg/mL (≈ 166 µM) | > 50 µg/mL | > 50 µg/mL | 25 µg/mL (≈ 83.2 µM) | Fc1cccc(/C=N/n2c(S)nnc2-c2cnccn2)c1 |  | 
> 50 µg/mL | > 100 µM | 50 µg/mL (≈ 142 µM) | > 50 µg/mL | > 50 µg/mL | 50 µg/mL (≈ 142 µM) | Sc1nnc(-c2cnccn2)n1/N=C/c1ccc(Cl)cc1Cl | > 10 mg/mL | 206 µM
1.56 µg/mL (≈ 3.23 µM) | 6.3 µM | 1.56 µg/mL (≈ 3.23 µM) | 1.56 µg/mL (≈ 3.23 µM) | 3.13 µg/mL (≈ 6.47 µM) | 3.13 µg/mL (≈ 6.47 µM) | NC[C@H]1O[C@H](O[C@H]2[C@H](O)[C@@H](O[C@H]3O[C@H](CO)[C@@H](O)[C@H](N)[C@H]3O)[C@H](N)C[C@@H]2N)[C@H](N)[C@@H](O)[C@@H]1O [BEKANAMYCIN] | > 10 mg/mL | 140 µM
